Data: US8148541B2, “Rhodanine derivatives, a process for the preparation thereof and pharmaceutical composition containing the same” (Korea Research Institute of Bioscience and Biotechnology, priority 2006, dated 2012)
pIC50: −log10 of the molar value. Read-outs that look alike come from different tables or passages of the source.

Experiments:
Assay in all cases: Protein phosphatase inhibition assay, FDP substrate, FMP fluorescence
Format in all cases: biochemical
[1] = biological target: T1, Cdc25B (Homo sapiens, UniProt P30305); settings: genetically recombinant enzyme, fluorescence of FMP
T1 sequence (P30305 1-580): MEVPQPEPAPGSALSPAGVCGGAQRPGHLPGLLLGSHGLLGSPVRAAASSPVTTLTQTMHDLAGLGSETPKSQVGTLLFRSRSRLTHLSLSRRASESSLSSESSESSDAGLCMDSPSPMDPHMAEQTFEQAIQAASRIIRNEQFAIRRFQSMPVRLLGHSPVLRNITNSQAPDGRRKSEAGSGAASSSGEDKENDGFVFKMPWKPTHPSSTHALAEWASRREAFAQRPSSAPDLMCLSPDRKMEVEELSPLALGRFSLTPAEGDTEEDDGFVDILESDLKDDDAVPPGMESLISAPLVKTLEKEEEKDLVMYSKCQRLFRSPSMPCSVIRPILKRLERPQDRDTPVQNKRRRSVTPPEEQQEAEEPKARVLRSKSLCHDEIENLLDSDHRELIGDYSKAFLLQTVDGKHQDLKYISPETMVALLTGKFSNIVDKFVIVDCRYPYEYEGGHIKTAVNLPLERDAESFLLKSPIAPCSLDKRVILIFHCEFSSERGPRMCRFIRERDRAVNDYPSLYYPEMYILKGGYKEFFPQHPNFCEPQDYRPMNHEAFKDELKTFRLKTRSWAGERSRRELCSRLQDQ
Procedure: (§1) In order to examine the ability of the rhodanine derivatives, that is, Compounds 1˜174, to inhibit protein phosphatases, they were assayed for IC50 values through the following experiments.
(§2) For the experiments, FDP (fluorescein diphosphate) was used as a substrate for genetically recombinant enzymes to measure the fluorescence of FMP (fluorescein monophosphate). […]

[2] = biological target: T2, Cdc25C (Homo sapiens, UniProt P30307); settings: genetically recombinant enzyme, fluorescence of FMP
T2 sequence (P30307 1-473): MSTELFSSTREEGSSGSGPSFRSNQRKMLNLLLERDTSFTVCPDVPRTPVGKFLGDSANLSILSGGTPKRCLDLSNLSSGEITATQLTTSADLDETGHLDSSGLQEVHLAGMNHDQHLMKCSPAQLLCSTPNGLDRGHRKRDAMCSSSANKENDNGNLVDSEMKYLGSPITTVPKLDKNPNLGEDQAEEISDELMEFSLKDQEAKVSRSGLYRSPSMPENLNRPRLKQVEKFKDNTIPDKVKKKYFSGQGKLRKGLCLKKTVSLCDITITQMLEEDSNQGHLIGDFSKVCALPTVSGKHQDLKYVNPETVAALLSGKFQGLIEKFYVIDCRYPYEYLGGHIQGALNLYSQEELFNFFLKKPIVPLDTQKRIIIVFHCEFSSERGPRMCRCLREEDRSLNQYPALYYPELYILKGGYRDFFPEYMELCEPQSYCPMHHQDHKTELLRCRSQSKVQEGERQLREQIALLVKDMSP
Procedure: as §1, §2

[3] = biological target: T3, PTP1B (Homo sapiens, UniProt P18031)
T3 sequence (P18031 1-435): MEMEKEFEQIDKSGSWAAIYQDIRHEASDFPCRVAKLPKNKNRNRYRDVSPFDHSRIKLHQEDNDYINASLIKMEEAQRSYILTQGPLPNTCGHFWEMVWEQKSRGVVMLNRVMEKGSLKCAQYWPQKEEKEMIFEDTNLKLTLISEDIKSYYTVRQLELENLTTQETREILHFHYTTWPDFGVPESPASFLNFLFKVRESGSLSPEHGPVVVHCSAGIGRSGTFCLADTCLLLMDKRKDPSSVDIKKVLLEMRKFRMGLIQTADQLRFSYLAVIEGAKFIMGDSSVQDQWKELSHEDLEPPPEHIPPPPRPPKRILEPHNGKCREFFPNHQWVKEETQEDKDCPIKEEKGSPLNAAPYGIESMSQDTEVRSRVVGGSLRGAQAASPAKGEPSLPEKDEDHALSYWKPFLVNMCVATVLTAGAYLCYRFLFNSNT
Procedure: as §1, §2

[4] = biological target: Prl-3 (Homo sapiens, UniProt O75365); settings: genetically recombinant enzyme, fluorescence of FMP
Sequence of Prl-3 (O75365 whole entry): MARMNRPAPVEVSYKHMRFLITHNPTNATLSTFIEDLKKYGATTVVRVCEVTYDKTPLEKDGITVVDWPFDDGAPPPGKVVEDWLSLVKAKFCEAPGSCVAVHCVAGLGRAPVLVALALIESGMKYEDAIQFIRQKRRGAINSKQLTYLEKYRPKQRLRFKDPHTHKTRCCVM
Excerpt: For the experiments, FDP (fluorescein diphosphate) was used as a substrate for genetically recombinant enzymes to measure the fluorescence of FMP (fluorescein monophosphate).

[5] = biological target: PP1; settings: genetically recombinant enzyme, fluorescence of FMP
Procedure: as §1, §2

[6] = biological target: LAR (Homo sapiens, UniProt P10586); settings: genetically recombinant enzyme, fluorescence of FMP
Sequence of LAR (P10586 30-1907): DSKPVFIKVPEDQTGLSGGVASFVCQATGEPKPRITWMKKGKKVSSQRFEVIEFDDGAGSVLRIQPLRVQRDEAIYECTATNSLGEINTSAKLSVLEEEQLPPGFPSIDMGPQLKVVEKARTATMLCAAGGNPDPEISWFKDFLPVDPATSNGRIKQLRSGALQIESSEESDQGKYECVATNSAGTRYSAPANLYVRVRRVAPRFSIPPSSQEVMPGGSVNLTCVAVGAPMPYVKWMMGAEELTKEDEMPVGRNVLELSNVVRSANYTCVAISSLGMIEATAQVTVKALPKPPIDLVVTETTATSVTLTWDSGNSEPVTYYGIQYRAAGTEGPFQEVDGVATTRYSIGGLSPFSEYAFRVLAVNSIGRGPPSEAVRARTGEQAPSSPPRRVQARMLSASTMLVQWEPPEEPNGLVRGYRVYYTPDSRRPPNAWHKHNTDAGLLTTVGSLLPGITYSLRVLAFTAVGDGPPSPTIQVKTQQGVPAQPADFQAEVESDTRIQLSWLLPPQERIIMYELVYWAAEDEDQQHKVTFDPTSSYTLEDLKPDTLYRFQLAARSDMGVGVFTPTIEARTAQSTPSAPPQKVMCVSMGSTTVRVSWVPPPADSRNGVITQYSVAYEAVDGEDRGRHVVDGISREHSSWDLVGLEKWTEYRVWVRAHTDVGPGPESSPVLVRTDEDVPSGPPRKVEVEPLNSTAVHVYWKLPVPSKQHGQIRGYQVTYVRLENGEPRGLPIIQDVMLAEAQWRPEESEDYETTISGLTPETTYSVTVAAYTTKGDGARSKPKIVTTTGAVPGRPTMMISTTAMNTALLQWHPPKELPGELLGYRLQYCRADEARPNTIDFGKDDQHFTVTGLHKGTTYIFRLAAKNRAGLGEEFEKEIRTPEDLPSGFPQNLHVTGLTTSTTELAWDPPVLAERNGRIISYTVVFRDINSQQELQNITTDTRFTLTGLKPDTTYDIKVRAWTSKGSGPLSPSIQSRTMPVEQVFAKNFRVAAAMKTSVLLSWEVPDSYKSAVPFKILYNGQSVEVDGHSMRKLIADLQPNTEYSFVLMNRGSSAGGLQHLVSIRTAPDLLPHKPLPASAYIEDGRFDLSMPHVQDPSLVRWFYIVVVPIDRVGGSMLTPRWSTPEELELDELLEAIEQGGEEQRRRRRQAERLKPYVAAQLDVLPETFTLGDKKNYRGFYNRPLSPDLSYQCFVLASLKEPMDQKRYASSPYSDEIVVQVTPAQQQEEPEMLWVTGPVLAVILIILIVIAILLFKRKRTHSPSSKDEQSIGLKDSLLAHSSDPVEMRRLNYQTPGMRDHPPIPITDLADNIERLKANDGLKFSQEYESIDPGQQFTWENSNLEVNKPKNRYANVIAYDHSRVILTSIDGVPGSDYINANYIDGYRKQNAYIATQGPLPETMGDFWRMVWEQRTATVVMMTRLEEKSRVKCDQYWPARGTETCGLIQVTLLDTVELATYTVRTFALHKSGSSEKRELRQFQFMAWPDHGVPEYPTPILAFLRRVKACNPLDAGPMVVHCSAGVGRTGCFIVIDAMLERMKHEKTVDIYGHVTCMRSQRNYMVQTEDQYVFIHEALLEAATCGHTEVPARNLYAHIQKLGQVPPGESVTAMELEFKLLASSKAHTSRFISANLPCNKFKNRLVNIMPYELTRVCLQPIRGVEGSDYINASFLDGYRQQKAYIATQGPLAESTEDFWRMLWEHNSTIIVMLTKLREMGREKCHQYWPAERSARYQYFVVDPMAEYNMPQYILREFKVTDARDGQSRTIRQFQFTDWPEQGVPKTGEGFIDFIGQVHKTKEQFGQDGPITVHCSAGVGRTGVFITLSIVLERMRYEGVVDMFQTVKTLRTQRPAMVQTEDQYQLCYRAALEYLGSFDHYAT
Procedure: as §1, §2

[7] = biological target: Yop (Yersinia enterocolitica, UniProt P15273); settings: genetically recombinant enzyme, fluorescence of FMP
Sequence of Yop (P15273 whole entry): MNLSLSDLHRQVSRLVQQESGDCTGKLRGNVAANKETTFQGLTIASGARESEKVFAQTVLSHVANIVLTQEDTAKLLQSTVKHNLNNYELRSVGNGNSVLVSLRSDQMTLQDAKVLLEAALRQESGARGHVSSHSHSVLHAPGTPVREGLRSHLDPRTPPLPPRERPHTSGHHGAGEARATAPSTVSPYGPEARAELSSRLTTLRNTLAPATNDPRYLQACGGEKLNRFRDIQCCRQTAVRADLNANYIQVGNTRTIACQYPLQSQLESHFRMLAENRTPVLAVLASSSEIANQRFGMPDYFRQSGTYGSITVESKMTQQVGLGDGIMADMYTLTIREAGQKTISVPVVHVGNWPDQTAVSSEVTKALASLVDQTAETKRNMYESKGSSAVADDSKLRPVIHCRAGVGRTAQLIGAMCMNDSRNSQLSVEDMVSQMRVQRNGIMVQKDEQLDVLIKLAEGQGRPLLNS
Procedure: as §1, §2

[8] = biological target: T4, CD45 (Homo sapiens, UniProt P08575); settings: genetically recombinant enzyme, fluorescence of FMP
T4 sequence (P08575 26-1306): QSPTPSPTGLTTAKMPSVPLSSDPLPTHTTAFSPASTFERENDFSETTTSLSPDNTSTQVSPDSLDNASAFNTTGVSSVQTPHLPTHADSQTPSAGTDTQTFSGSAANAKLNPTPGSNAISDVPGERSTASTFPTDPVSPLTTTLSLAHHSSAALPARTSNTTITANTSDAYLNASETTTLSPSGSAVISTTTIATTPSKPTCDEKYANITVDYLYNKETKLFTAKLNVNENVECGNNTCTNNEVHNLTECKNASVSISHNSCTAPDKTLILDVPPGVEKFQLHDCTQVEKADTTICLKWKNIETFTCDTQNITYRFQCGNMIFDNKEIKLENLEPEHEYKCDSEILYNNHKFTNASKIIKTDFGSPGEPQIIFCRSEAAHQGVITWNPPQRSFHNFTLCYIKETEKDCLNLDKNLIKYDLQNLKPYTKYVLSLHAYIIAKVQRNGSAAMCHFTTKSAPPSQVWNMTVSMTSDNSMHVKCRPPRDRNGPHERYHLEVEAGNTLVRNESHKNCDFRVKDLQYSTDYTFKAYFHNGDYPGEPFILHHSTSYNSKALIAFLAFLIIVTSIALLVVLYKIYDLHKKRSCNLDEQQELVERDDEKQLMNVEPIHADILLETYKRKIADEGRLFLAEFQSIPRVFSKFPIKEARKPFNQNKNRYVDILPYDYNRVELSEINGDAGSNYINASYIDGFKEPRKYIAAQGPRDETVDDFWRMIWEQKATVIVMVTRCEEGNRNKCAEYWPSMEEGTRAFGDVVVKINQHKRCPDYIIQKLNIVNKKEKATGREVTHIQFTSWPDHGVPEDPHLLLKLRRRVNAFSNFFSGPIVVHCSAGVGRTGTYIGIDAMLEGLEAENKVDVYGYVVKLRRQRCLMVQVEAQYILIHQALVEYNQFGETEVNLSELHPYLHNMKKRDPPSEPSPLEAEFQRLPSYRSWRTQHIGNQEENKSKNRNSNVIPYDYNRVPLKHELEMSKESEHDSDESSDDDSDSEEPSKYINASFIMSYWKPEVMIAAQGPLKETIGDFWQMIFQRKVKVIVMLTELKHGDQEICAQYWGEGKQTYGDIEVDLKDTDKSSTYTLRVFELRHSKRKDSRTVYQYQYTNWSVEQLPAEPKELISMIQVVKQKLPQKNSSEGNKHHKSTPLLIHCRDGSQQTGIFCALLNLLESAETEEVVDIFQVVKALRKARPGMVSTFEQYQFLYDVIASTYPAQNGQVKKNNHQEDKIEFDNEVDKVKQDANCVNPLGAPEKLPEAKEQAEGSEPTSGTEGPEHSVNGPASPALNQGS
Procedure: as §1, §2

[9] = biological target: pp2A; settings: genetically recombinant enzyme, fluorescence of FMP
Procedure: as §1, §2

[10] = biological target: T5, Cdc25A (Homo sapiens, UniProt P30304); settings: genetically recombinant enzyme, fluorescence of FMP
T5 sequence (P30304 1-524): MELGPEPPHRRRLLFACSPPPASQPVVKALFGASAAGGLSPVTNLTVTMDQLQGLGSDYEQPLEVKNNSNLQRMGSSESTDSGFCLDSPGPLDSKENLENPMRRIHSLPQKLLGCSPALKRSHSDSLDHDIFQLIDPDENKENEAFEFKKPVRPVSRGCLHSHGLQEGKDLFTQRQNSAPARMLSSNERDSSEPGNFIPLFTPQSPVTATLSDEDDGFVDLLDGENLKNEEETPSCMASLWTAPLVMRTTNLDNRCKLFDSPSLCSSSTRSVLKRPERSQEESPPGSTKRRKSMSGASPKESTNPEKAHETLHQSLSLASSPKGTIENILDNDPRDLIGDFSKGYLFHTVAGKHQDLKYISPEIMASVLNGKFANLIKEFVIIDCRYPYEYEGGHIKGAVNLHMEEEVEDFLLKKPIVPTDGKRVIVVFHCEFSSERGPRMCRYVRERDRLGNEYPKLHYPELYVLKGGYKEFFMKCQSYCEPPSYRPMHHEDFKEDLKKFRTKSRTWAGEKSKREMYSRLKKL
Procedure: as §1, §2

[11] = biological target: VHR (Homo sapiens, UniProt P51452); settings: genetically recombinant enzyme, fluorescence of FMP
Sequence of VHR (P51452 whole entry): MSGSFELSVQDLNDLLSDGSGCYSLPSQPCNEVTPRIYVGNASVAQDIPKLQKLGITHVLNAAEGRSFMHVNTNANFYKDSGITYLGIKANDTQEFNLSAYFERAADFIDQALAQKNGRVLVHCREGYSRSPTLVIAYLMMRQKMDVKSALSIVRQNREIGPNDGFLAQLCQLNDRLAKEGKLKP
Procedure: as §1, §2

[12] = genetically recombinant enzyme, FDP substrate, fluorescence of FMP, read-out: IC50 PTP1B

pIC50 [2] | pIC50 [3, 12] | pIC50 [4] | SMILES | further results
< 4.70 | 4.89 | 5.44 | O=C1NC(=S)S/C1=C\c1cc(Br)ccc1OCCN1c2ccccc2Cc2ccccc21 [Compound 142, 5-2-[2-(9H-acridin-10-yl)-ethoxy]-5-bromo-benzylidene-2-thioxo-thiazolidin-4-one] | pIC50 [1]: 5.36
< 4.70 | < 4.70 | – | O=C1NC(=S)S/C1=C\c1cc2ccccc2cc1OCc1ccccc1 [Compound 2, 5-(3-benzyloxy-naphthalen-2-ylmethylene)-2-thioxo-thiazolidin-4-one] | pIC50 [5]: < 4.70
– | – | – | O=C1NC(=S)S/C1=C\c1cc(Br)ccc1OCc1ccccc1 [Compound 1, 5-(2-benzyloxy-5-bromobenzylidene)-2-thioxo-thiazolidin-4-one] | pIC50 [3]: < 4.70
– | 5.68 | – | O=C1NC(=S)S/C1=C\c1cc(Br)ccc1OCc1ccc(-c2ccccc2)cc1 [Compound 18, 5-[2-(biphenyl-ylmethoxy)-5-bromo-benzylidene]-2-thioxo-thiazolidin-4-one] | pIC50 [8]: < 4.70
– | 5.00 | – | O=C1NC(=S)S/C1=C\c1cc(Br)ccc1OCCc1ccccc1 [Compound 4, 5-(5-bromo-2-phenethyloxy-benzylidene)-2-thioxo-thiazolidin-4-one] | pIC50 [5]: < 4.70; pIC50 [9]: < 4.70
– | 4.33 | 5.80 | O=C1NC(=S)S/C1=C\c1cc(Br)ccc1OCCn1c2ccccc2c2ccccc21 [Compound 141, 5-[5-bromo-2-(2-carbazol-9-yl-ethoxy)-benzylidene]-2-thioxo-thiazolidin-4-one] | pIC50 [10]: < 4.70; pIC50 [1]: 5.57
< 4.70 | 5.30 | – | O=C1NC(=S)S/C1=C\c1cc(Br)ccc1OCc1cccc(C(F)(F)F)c1 [Compound 19, 5-[5-bromo-2-(3-trifluoromethyl-benzyloxy)-benzylidene]-2-thioxo-thiazolidin-4-one] | pIC50 [8]: < 4.70; pIC50 [11]: < 4.70
< 4.70 | < 4.70 | 5.87 | CCN(CC)c1ccc(/C=C2\SC(=S)NC2=O)c(OCc2ccccc2)c1 [Compound 32, 5-(2-benzyloxy-4-diethylamino-benzylidene)-2-thioxo-thiazolidin-4-one] | pIC50 [6]: < 4.70; pIC50 [11]: < 4.70

SMILES | pIC50 [2] | pIC50 [3, 12] | pIC50 [4] | further results
CN(CCOc1ccc(Br)cc1/C=C1\SC(=S)NC1=O)C(=O)OC(C)(C)C [Compound 157, 2-[4-bromo-2-(4-oxo-2-thioxo-thiazolidin-5-ylidenemethyl)-phenoxy]-ethyl-methyl-carbamic acid t-butyl ester] | – | < 4.70 | 5.21 | pIC50 [6]: < 4.70; pIC50 [7]: < 4.70
